Measurements from publication PMC11435220, “Anticancer Activity of Imidazolyl Gold(I/III) Compounds in Non-Small Cell Lung Cancer Cell Lines” (Pharmaceuticals, 2024).

Tests used:
H460 = test: MTT viability assay, H460; assay type: cell-based, human; details: mean ± span, 48 h treatment, cell line with KRAS mutation
Protocol: (§1) NSCLC cell lines were obtained from the Hamon Center for Therapeutic Oncology Research (UT Southwestern Medical Center). IMR-90 human lung fibroblasts were from ATCC (CC-186). All cell lines were maintained and treated in RPMI medium (Cytiva (Shanghai, China), #SH30027), supplemented with 10% heat-inactivated FBS (Millipore Sigma (Darmstadt, Germany), F0394).
(§2) 5000–10,000 cells/0.1 mL/well were seeded in 96-well plates to achieve 70% confluence after 24 h. All drug stock solutions were prepared fresh in DMSO at a concentration of 10 mM. The day after cell plating, we added 0.1 mL of medium containing the appropriate drug dilutions. After 48 h of treatment, 10 μL of MTT solution (5 mg/mL) was added to each well. After 4 h incubation, the medium was aspirated, and the formazan salts dissolved in 200 μL DMSO/well for 10 min at 37 °C. The absorbance was read at 570 nm (OD 570 nm). Data are represented as mean ± SD of two independent experiments.
(§3) Statistical and data analysis was performed using GraphPad Prism (v10). IC50 values were calculated using a three-parameter non-linear regression model with log(inhibitor) vs. response. For the TxrR activity statistics, the groups were compared using a two-way ANOVA followed by Dunnett’s multiple comparisons with alpha = 0.05. The correlation between IC50 values and TxrR activity was achieved using Pearson correlation with alpha = 0.05.

H1993 = test: MTT viability assay, H1993; assay type: cell-based, human; details: mean ± span, 48 h treatment, cell line without KRAS mutation
Protocol: as §1, §2, §3

HCC-44 = test: MTT viability assay, HCC-44; assay type: cell-based, human; details: mean ± span, 48 h treatment, cell line with KRAS mutation
Protocol: as §1, §2, §3

[1] = test system: TrxR in A549 cell lysates; test: Thioredoxin reductase activity in lysates of treated A549 cells; assay type: cell-based, human; details: for TrxR activity reduction / inhibition: A549, 24 h treatment, stated for both cell lines; for Mean Diff. TrxR activity vs. veh: A549 lysate, 24 h treatment at 5 μM
Protocol: (§4) The enzymatic activity of TrxR in the A549 and H522 cell lysates was measured using the TrxR assay Kit (Abcam ab83463) following the manufacturer’s instructions. This kit is based on the TxrR-mediated reduction of the colorless DTNB into TNB2—(yellow). Briefly, cells were plated to reach 70% confluence on a 100-mm dish in one day. They were treated with 5 μM of the gold compounds or the equivalent quantity of DMSO for 24 h. Then, cells were washed in PBS 1X, detached, and lysed in 100 μL of cold TrxR assay buffer supplemented with the Proteinase Inhibitor Cocktail. 20 μg and 40 μg of total proteins were used for the A549 and the H522, respectively. The DTNB substrate was added to samples with or without TrxR inhibitor (provided with the kit) in 96-well plates. The OD412 was measured soon after the substrate addition (A1) and then after 25, 60, 90, and 110 min (An) at 25 °C using a FLUOstar Omega Microplate Reader (BGM Labtech, Chicago, IL, USA). Data analysis was performed following the manufacturer’s instructions. The OD of TNB2, generated by TrxR in every condition, is:ΔA412 nm = (AnAB − AnINH) − (AB − A1INH) where AB is the assay buffer, and INH is the inhibitor. The TrxR activity is:(2) ΔB/Tn−T1×mg of protein lysate×sample dilution factor=(nmol/min)/mg=mU/mg where ΔB is the TNB amount calculated applying ΔA412 nm to TNB standard curve (in nmol), T1 is the time of the first reading (A1AB, and A1INH) (in min), Tn is the time of the second reading (AnAB and AnINH) (in min). The residual TxrR activity (%) was calculated by normalizing the TxrR activity for each compound with the matching vehicle values at every n time point.
as §3

H522 = test: MTT viability assay, H522; assay type: cell-based, human; details: mean ± span, 48 h treatment, cell line without KRAS mutation
Protocol: as §1, §2, §3

[2] = test system: human NSCLC cell lines with KRAS mutations; test: MTT assay, average across NSCLC cell lines with KRAS mutations; assay type: cell-based; details: 48 h, read-out: IC50 * averaged values
Protocol: as §1, §2, §3

A549 = test: MTT viability assay, A549; assay type: cell-based, human; details: mean ± span, 48 h treatment, cell line with KRAS mutation
Protocol: as §1, §2, §3

[3] = test system: TrxR in H522 cell lysates; test: Thioredoxin reductase activity in lysates of treated H522 cells; assay type: cell-based, human; details: for TrxR activity reduction / inhibition: H522, 24 h treatment, stated for both cell lines; for Mean Diff. TrxR activity vs. veh: H522 lysate, 24 h treatment at 5 μM
Protocol: as §4, §3

[4] = test system: human NSCLC cell lines without KRAS mutations; test: MTT assay, average across NSCLC cell lines without KRAS mutations; assay type: cell-based; details: average across cell lines without KRAS mutations (H522, H661, H1395, H1993), 48 h, read-out: IC50 * averaged values
Protocol: as §1, §2, §3

H1355 = test: MTT viability assay, H1355; assay type: cell-based, human; details: mean ± span, 48 h treatment, cell line with KRAS mutation
Protocol: as §1, §2, §3

[5] = Solution stability by UV-visible spectra over time; assay type: physicochemical; details: for percent concentration reduction estimated from UV spectra: 100 µM solution, within an hour; for stability in solution: UV-visible spectra over time, DMSO, methanol, PBS buffered solutions
Protocol: Stability studies were led by acquiring UV−visible spectra of 100 µM DMSO or methanol solutions of compounds 1∓8 over time (Figures S19–S29 in Supplementary Materials). […] The stability of NHC-AuX3 complexes (with X = Cl, compounds 1 and 2, with X = Br, compounds 5 and 6) was affected by the nature of both the substituents on the imidazolyl ligand and of the halide, showing a small decrease of the UV bands maxima in an hour. By analyzing the spectral data of compounds 1 and 2, a percent concentration reduction of about 4–5% was estimated within an hour, grading them eligible for biological tests. The partial instability may be attributed to the formation of cationic bis-carbeneAuCl2 species (Equation (1)), with the [bis-carbeneAuX2]^+ and the respective AuX2^−; these ions were actually detected as positive and negative ions in the ESI-MS spectra (see Figures S12 and S13). […] Additionally, the (+)ESI MS spectrum of the acetonitrile solution of compound 6 is particularly rich in positive ions (Figure S16). As concerns the mono-/bis-carbene formation, it is likely initiated by the large trans effect of the carbene ligands, which induces the chemical lability on the trans halide, triggers […], the formation of bis-carbeneAu(III) species, and AuX2^− or AuX4^− anions:2[NHC-AuX3] ⇔ [[(NHC)2AuX2] [AuX2^−] + 2X(1) […]
The stability of the samples 1-8 in DMSO solution was assayed by UV-visible spectroscopy. Spectra were acquired using the Shimadzu UV-2700i spectrophotometer, equipped with the Shimadzu CPS-100 Peltier, at 293 K. Unless diversely specified, 100 µM DMSO solutions of the 1-8 compounds were prepared and spectra were acquired each 10 minutes for a total of 60 minutes. The spectra obtained are reported as following.
Figure S19. UV-Visible Spectra acquired for complex 1.
Figure S20. UV-Visible Spectra acquired for complex 2. […]

H661 = test: MTT viability assay, H661; assay type: cell-based, human; details: mean ± span, 48 h treatment, cell line without KRAS mutation
Protocol: as §1, §2, §3

H1395 = test: MTT viability assay, H1395; assay type: cell-based, human; details: mean ± span, 48 h treatment, cell line without KRAS mutation
Protocol: as §1, §2, §3

H1792 = test: MTT viability assay, H1792; assay type: cell-based, human; details: mean ± span, 48 h treatment, cell line with KRAS mutation
Protocol: as §1, §2, §3

| Compound | IC50 (H460) [µM] | IC50 (H1993) [µM] | IC50 (HCC-44) [µM] | TrxR activity reduction / inhibition [1] | Mean Diff. TrxR activity vs. veh ([1]; reading at 25 min) [%] | Mean Diff. TrxR activity vs. veh ([1]; reading at 60 min) [%] | Mean Diff. TrxR activity vs. veh ([1]; reading at 90 min) [%] | Mean Diff. TrxR activity vs. veh ([1]; reading at 110 min) [%] | IC50 (H522) [µM] | IC50 [2] [µM] | IC50 (A549) [µM] | Mean Diff. TrxR activity vs. veh ([3]; reading at 25 min) [%] | Mean Diff. TrxR activity vs. veh ([3]; reading at 60 min) [%] | Mean Diff. TrxR activity vs. veh ([3]; reading at 90 min) [%] | Mean Diff. TrxR activity vs. veh ([3]; reading at 110 min) [%] | IC50 [4] [µM] | IC50 (H1355) [µM] | IC50 (H661) [µM] | IC50 (H1395) [µM] | IC50 (H1792) [µM] | further results |
| --- | --- | --- | --- | --- | --- | --- | --- | --- | --- | --- | --- | --- | --- | --- | --- | --- | --- | --- | --- | --- | --- |
| Cn1cc[n+](C)[c]1[Au-]([Cl])([Cl])[Cl] [Compound 1] | 52 ± 1.2 | 37 ± 1.3 | 45 ± 0.25 | 20–30% | −16.73 | −13.1 | −26.55 | −32.38 | 75 ± 0.89 | 62 | > 100 | 15.84 | −8.894 | −20.1 | −23.89 | 52 | 41 ± 0.33 | 47 ± 1.1 | 47 ± 0.4 | 60 ± 1.4 | TrxR activity reduction / inhibition [3]: 20–30%; percent concentration reduction estimated from UV spectra [5]: 4–5% |
| C[n+]1ccn(Cc2ccccc2)[c]1[Au-]([Cl])([Cl])[Cl] [Compound 2] | 65 ± 2.2 | 6.1 ± 0.76 | 26 ± 1.3 | 20–30% | −5.148 | −11.64 | −22.67 | −30.44 | 53 ± 2.1 | 41 | 56 ± 1.6 | 3.864 | −19.16 | −23.38 | −31.46 | 30 | 34 ± 1.4 | 45 ± 1.7 | 17 ± 0.8 | 24 ± 0.98 | TrxR activity reduction / inhibition [3]: 20–30%; percent concentration reduction estimated from UV spectra [5]: 4–5% |
| C[n+]1ccn(Cc2ccccc2)[c]1[Au-][Br] [Compound 4] | 11 ± 1.2 | 12 ± 1.03 | 14 ± 1.1 | – | −3.861 | −2.183 | −18.13 | −21.37 | 5.3 ± 0.88 | 14 | 19 ± 1 | 23.18 | 7.116 | −0.3654 | −18.72 | 9 | 8.1 ± 0.66 | 7 ± 0.81 | 11 ± 0.88 | 16 ± 0.94 | – |
| Cn1cc[n+](C)[c]1[Au-]([Br])([Br])[Br] [Compound 5] | > 100 | 70 ± 1.6 | 32 ± 1.6 | 30–40% | −11.58 | −29.11 | −31.74 | −33.68 | 52 ± 0.37 | 59 | 49 ± 0.33 | −35.55 | −39.68 | −41.1 | −45.26 | 53 | 12 ± 0.72 | 42 ± 1.7 | 49 ± 0.11 | > 100 | TrxR activity reduction / inhibition [3]: 30–40%; stability in solution [5]: least stable in solution |
| C[n+]1ccn(Cc2ccccc2)[c]1[Au-]([Br])([Br])[Br] [Compound 6] | 37 ± 1.8 | 5.6 ± 0.76 | 19 ± 1.4 | 30–40% | −17.37 | −2.183 | −31.09 | −38.86 | 55 ± 1.9 | 29 | 13 ± 1.03 | −31.68 | −37.22 | −39.82 | −46.06 | 37 | 59 ± 1.7 | 26 ± 1.5 | 62 ± 2.4 | 15 ± 1.1 | TrxR activity reduction / inhibition [3]: 30–40%; stability in solution [5]: least stable in solution |
| [bis-(1,3-dimethyl-imidazoly-2yl)]gold(I) dibromoaurate [Compound 3] | 68 ± 0.1 | 11 ± 0.96 | 10 ± 1.1 | – | −21.88 | −4.221 | −8.42 | −9.068 | 15 ± 1.1 | 46 | 91 ± 1.03 | −44.05 | −47.07 | −47.31 | −50.17 | 16 | 9.1 ± 1.03 | 27 ± 1.2 | 11 ± 0.63 | 50 ± 1.2 | – |
